We go through 1 compound from ChEMBL document CHEMBL5715956, “Selective Targeting of Bromodomains of the Bromodomain-PHD Fingers Family Impairs Osteoclast Differentiation” (ACS Chem Biol, 2017).

Assay [1] addresses Transcription initiation factor TFIID subunit 1 (Homo sapiens) (UniProt P21675). Particulars: dose 10.0 µM.
The species entered for assay [2] is Homo sapiens. Kind of assay: Binding affinity to Cl channel GABA gated receptor (unknown origin) assessed as specific binding at 10 uM relative to control.
Assay [3] addresses Bromodomain-containing protein 4 (Homo sapiens) (UniProt O60885). Particulars: dose 10.0 µM.
For assay [4], the target named is Protein polybromo-1 (Homo sapiens) (UniProt Q86U86). Particulars: dose 10.0 µM.
In assay [5] the target is Chromatin remodeling regulator CECR2 (Homo sapiens) (UniProt Q9BXF3). Conditions: dose 10.0 µM.
Assay [6] concerns the target T1, Bromodomain and PHD finger-containing protein 3 (Homo sapiens) (UniProt Q9ULD4).
T1 sequence (whole entry): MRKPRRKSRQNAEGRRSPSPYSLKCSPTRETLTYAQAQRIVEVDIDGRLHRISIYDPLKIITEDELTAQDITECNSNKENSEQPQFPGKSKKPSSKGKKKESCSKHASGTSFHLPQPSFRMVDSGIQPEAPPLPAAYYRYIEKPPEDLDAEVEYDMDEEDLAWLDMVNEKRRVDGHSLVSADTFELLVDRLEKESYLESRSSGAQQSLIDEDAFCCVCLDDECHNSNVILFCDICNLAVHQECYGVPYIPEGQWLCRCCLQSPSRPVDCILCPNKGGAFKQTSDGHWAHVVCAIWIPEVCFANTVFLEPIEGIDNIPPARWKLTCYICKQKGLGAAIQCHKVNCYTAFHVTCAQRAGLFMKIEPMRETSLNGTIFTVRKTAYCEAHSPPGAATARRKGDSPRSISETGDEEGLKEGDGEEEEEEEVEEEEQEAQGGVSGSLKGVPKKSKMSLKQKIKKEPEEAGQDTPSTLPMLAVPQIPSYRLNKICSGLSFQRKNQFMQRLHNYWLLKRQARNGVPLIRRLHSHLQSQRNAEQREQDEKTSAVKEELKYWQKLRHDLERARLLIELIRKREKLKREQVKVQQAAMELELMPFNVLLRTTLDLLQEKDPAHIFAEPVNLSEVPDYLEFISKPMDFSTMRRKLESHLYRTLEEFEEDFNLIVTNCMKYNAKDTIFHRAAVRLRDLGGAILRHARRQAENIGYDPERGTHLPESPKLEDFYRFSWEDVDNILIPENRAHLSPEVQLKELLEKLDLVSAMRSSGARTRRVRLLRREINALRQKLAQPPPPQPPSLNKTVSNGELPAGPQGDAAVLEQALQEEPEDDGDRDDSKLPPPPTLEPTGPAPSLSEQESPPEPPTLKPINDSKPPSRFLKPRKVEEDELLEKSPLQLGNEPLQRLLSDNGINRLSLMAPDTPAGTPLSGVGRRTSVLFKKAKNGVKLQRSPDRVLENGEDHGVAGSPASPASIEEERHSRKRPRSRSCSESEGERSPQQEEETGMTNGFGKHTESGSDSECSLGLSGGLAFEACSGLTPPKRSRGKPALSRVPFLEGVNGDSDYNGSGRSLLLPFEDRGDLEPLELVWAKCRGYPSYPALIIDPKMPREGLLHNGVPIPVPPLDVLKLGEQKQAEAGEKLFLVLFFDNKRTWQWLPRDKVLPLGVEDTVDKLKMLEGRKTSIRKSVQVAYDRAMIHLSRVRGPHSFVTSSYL
Kind of assay: Binding affinity to BRPF3 (unknown origin) assessed as change in entropy at 12 uM by Isothermal titration calorimetry.

Assay [7] concerns the target Bromodomain testis-specific protein (Homo sapiens) (UniProt Q58F21). Conditions: dose 10.0 µM.
Assay [8] addresses T2, Bromodomain-containing protein 1 (Homo sapiens) (UniProt O95696).
T2 sequence (whole entry): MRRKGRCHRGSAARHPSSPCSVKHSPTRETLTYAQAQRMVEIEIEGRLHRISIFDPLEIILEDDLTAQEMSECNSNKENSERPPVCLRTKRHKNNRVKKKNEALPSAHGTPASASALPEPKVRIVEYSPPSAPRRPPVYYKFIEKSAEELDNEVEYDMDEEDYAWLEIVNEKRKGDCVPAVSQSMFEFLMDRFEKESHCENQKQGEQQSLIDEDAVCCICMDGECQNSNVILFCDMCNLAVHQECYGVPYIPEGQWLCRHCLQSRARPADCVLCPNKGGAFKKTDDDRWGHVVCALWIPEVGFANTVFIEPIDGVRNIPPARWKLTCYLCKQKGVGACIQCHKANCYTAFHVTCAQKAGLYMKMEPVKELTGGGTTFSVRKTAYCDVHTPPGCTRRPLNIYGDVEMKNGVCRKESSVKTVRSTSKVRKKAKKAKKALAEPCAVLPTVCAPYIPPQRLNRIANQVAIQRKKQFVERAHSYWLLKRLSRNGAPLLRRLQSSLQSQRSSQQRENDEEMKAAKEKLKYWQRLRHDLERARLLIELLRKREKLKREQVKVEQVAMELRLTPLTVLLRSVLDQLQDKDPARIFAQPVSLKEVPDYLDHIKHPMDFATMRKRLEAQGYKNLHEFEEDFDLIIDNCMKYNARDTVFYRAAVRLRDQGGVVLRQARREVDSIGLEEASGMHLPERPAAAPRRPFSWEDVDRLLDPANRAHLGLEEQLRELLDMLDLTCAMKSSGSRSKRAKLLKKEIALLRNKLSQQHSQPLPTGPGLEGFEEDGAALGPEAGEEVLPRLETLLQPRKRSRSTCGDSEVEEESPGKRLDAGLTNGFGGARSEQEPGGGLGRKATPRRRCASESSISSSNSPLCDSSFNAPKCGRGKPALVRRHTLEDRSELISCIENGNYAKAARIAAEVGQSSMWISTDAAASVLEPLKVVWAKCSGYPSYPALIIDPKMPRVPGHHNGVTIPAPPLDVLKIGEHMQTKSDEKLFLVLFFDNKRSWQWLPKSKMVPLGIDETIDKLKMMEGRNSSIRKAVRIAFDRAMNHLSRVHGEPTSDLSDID
In words: Binding affinity to BRPF2 (unknown origin) assessed as change in entropy at 12 uM by Isothermal titration calorimetry.

Assay [9] has as its target Histone acetyltransferase p300 (Homo sapiens) (UniProt Q09472). Conditions: dose 10.0 µM.
In assay [10] the target is Bromodomain adjacent to zinc finger domain protein 1A (Homo sapiens) (UniProt Q9NRL2). Particulars: dose 10.0 µM.
The species named for assay [11] is Homo sapiens. Particulars: dose 10.0 µM.
The target of assay [12] is Bromodomain-containing protein 2 (Homo sapiens) (UniProt P25440). Particulars: dose 10.0 µM.
Assay [13] concerns the target T1, Bromodomain and PHD finger-containing protein 3 (Homo sapiens). Kind of assay: Binding affinity to BRPF3 (unknown origin) assessed as change in enthalpy at 12 uM by Isothermal titration calorimetry.
The target of assay [14] is Transcription intermediary factor 1-alpha (Homo sapiens) (UniProt O15164). Particulars: dose 10.0 µM.
For assay [15], the target named is Protein polybromo-1 (Homo sapiens) (UniProt Q86U86). Conditions: dose 10.0 µM. This is another data set of the same source.

Protein polybromo-1 (Homo sapiens), sequence (Q86U86 whole entry): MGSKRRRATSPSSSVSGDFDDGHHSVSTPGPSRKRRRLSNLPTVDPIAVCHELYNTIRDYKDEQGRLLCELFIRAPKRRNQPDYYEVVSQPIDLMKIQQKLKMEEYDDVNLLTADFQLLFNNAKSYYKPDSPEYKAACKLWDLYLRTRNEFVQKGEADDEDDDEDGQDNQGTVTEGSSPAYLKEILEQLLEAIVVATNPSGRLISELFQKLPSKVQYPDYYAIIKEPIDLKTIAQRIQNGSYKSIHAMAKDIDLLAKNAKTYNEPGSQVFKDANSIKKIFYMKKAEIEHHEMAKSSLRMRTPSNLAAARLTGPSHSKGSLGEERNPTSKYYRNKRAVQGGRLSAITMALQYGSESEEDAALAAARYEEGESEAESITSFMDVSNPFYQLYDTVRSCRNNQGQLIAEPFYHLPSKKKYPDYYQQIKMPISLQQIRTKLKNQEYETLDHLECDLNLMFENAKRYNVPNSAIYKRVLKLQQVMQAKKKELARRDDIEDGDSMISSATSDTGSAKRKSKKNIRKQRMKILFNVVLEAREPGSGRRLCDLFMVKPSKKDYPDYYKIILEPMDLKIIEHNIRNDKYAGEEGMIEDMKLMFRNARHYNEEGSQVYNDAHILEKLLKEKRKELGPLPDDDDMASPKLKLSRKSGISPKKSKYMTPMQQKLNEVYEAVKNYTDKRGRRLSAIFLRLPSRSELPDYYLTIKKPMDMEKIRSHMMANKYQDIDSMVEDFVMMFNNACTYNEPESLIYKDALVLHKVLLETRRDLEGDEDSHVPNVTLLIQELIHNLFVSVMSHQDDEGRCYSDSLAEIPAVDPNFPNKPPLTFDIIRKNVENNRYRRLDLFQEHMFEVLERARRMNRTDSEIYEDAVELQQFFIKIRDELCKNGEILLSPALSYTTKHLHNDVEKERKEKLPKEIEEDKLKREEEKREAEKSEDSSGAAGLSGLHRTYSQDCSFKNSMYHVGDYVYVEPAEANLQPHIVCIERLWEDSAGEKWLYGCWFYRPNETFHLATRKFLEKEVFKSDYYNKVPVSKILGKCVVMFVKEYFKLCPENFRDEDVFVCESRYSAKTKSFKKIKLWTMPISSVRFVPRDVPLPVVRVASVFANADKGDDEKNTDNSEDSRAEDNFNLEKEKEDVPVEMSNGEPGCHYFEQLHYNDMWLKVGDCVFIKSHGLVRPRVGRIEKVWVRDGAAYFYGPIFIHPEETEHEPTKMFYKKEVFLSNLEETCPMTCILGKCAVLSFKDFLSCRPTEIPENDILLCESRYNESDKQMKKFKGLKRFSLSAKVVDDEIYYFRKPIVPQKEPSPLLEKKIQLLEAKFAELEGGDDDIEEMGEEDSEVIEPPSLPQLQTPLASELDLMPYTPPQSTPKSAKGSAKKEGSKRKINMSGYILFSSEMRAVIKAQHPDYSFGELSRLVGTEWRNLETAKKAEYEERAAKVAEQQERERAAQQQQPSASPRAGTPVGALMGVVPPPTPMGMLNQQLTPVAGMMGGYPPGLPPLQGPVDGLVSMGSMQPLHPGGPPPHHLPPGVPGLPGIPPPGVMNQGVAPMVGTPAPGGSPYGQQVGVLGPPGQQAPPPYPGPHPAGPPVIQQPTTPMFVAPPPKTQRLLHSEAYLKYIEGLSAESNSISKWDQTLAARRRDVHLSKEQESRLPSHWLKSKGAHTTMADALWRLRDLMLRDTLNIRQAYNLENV
Transcription initiation factor TFIID subunit 1 (Homo sapiens), sequence (P21675 whole entry): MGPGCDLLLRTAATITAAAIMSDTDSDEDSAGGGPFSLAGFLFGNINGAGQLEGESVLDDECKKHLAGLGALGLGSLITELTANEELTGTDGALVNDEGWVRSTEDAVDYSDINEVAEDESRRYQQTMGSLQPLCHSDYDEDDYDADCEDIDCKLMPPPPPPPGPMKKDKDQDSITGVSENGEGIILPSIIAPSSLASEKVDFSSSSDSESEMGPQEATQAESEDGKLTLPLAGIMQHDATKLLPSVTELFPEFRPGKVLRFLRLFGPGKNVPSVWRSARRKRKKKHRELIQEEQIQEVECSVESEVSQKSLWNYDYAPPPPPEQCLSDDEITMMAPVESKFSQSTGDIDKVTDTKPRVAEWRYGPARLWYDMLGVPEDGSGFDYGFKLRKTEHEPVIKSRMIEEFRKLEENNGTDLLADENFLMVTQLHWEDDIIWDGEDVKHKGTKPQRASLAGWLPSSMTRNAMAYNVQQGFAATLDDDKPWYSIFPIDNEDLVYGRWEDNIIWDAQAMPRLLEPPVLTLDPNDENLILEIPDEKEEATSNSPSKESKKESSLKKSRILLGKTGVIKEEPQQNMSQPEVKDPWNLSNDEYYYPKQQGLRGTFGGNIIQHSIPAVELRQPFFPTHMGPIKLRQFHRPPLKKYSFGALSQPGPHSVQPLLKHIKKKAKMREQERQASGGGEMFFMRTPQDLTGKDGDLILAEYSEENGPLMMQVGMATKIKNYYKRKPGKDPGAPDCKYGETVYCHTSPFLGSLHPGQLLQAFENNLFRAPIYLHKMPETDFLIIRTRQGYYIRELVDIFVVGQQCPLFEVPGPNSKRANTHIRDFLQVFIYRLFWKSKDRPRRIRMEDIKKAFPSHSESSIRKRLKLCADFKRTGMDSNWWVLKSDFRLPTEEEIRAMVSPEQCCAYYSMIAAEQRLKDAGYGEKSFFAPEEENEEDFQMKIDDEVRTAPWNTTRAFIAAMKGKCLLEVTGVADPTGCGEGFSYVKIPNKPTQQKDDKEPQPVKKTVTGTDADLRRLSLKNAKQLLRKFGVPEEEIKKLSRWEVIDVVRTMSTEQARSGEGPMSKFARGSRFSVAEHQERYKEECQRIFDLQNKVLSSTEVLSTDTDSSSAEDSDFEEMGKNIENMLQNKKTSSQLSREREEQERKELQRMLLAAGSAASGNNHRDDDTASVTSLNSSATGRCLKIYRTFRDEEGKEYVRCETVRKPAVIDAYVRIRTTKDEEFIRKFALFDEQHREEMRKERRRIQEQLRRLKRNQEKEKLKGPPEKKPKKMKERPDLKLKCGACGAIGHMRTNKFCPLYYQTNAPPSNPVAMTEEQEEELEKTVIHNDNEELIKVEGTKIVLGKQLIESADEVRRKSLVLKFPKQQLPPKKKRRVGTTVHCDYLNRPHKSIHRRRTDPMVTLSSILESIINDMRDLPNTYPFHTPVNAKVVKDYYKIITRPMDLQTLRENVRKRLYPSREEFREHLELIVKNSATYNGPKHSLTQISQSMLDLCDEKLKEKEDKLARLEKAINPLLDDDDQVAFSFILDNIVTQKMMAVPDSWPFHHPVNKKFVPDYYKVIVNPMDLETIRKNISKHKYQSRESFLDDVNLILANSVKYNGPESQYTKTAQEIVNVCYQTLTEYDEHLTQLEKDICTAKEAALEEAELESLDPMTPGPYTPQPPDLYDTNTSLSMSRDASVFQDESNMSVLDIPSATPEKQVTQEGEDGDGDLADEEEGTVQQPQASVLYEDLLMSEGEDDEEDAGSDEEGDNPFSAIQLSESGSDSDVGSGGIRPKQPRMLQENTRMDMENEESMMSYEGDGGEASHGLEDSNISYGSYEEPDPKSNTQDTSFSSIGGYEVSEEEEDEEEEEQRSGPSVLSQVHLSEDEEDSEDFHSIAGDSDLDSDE
Chromatin remodeling regulator CECR2 (Homo sapiens), sequence (Q9BXF3 whole entry, looked up): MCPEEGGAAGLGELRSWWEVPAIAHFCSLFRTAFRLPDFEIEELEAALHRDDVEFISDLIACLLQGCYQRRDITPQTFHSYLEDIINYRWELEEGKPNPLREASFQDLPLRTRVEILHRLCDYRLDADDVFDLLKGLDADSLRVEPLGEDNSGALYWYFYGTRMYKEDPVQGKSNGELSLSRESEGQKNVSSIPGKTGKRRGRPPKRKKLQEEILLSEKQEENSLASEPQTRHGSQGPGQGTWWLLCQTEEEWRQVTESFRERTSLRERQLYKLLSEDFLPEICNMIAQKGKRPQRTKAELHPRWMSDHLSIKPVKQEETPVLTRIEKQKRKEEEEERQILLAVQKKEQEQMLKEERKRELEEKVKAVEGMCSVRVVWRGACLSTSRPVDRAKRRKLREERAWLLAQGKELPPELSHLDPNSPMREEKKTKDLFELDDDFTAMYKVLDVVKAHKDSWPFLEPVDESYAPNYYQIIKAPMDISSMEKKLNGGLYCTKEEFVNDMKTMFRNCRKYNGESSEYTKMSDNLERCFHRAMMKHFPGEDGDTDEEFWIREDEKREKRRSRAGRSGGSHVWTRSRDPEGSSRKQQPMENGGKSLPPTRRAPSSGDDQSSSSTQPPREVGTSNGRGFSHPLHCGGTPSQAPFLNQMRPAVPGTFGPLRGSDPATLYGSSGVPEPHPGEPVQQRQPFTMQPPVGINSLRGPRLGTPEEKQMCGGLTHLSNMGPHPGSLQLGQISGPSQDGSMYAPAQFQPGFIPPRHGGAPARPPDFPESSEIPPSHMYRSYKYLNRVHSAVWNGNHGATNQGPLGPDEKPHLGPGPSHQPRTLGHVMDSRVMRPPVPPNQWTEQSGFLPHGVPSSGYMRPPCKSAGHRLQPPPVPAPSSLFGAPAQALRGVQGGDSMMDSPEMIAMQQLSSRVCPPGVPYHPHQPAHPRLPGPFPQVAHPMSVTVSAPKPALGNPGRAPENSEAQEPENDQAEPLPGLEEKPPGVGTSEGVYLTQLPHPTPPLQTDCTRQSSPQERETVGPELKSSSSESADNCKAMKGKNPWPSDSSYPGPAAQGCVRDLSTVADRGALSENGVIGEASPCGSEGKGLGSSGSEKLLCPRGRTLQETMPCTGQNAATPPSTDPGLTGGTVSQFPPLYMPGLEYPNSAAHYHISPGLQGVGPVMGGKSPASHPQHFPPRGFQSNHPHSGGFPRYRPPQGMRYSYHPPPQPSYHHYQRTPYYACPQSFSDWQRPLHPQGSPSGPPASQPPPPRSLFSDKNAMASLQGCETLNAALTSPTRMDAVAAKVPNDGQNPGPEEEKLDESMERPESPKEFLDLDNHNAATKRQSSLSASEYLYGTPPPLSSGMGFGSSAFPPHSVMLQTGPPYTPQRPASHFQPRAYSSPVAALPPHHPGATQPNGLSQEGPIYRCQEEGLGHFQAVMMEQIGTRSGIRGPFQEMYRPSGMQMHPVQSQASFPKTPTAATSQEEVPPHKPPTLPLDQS

With `COc1cc2c(cc1NS(=O)(=O)c1ccc(Br)cc1C)n(C)c(=O)n2C`, the ΔTm in assay [1] is 0.2 °C; in assay [3], 0.6 °C; in assay [4], 0.6 °C; in assay [5], 0.1 °C; in assay [7], 0.4 °C; in assay [9] it was 0.7 °C. Also, the ΔTm was 0.15 °C in assay [10]; -0.4 °C in the assay listed under Homo sapiens [11]; 0.7 °C in assay [12]; 1.6 °C in assay [14]; 0.2 °C in assay [15]. The Activity in the assay listed under Homo sapiens [2] is 95.3%. Besides, the deltaS in [6] was 0.002 kcal/mol/K; in [8], -0.004 kcal/mol/K. Further, in [13], the deltaH was -7.37 kcal/mol.
